Measured values from patent publication US8642774B2, “Compounds” (Boehringer Ingelheim International GmbH, priority 2011, dated 2014).

What follows are compounds tested against T1, human recombinant mGluR5 (Homo sapiens, UniProt P41594) (assay: positive modulation of mGluR5, calcium based FLIPR assay). Settings: EC50 of the modulation; HEK 293 cell line expressing human recombinant mGluR5; peak height of Ca fluorescence signal after glutamate at approx. 5% basal stimulation; read-out: EC50.
T1 construct: expressed in transfected cells; host or cells: HEK 293 cell line, cultured with tetracycline, hygromycin and geneticin; tetracycline is withdrawn 3-7 days before the assay
T1 sequence (P41594 21-1212): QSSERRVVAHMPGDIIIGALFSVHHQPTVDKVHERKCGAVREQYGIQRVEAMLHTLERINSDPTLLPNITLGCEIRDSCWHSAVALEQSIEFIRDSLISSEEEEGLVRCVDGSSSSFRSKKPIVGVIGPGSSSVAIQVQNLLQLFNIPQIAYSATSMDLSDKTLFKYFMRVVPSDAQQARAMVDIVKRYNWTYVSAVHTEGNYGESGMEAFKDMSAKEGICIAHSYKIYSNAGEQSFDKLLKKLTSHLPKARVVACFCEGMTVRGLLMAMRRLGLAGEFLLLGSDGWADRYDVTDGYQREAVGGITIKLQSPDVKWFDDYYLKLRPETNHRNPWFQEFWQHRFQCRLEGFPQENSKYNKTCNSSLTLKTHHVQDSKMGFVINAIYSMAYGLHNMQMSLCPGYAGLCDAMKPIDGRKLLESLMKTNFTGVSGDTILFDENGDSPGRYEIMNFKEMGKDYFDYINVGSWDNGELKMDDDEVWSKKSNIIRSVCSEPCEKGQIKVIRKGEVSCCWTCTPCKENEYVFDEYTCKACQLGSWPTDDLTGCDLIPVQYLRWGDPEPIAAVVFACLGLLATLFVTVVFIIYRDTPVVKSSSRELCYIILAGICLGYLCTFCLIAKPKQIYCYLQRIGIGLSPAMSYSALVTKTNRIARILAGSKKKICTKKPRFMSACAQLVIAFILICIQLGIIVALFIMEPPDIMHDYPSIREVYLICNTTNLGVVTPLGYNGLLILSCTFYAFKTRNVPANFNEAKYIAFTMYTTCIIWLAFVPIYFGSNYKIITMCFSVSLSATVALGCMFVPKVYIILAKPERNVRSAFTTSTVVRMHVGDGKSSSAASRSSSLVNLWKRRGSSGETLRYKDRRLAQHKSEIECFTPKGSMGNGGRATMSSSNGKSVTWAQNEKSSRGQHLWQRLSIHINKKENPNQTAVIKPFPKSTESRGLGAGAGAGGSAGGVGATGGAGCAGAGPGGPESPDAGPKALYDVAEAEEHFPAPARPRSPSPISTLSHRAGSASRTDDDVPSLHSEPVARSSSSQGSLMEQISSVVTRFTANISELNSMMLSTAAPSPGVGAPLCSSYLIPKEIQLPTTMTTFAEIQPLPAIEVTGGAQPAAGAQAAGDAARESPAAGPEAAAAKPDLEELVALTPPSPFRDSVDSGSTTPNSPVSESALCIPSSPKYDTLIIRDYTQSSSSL
Format: cell-based
Experimental: The positive modulation of mGluR5 is measured in a HEK 293 cell line expressing human recombinant mGluR5 and is detected with calcium based FLIPR assay. The cells are cultured with DMEM supplemented with 10% FCS, 2 μg/mL tetracycline, 100 μg/mL hygromycin and 500 μg/mL gneticin. The cell culture media is exchanged for tetracycline-free cell culture media 3-7 days before the assay. One day before the assay the cell culture medium is exchanged to DMEM without glutamine and phenol red and supplemented with 10% FCS, 100 μg/mL hygromycin and 500 μg/mL geneticin. On the assay day, the medium of the subconfluent cultures is removed and the cells are detached by addition of 2.5 ml EDTA (0.02%) per 175 cm2 culture flask for 1 minute. The cells are resuspend in Ringer solution (140 mM NaCl, 5 mM KCl, 2.5 mM CaCl2, 1.5 mM MgCl2, 5 mM Glucose, 10 mM Hepes; adjusted to pH 7.4 with NaOH), pooled and Ringer solution added to adjust the volume to 50 mL. The cell suspension is centrifuged for 5 min at 1500 U/min (425 g). The supernatant is removed and the cells washed a second time with 50 ml fresh Ringer solution and centrifuged again as before. The supernatant is again removed and the pellet resuspended in Ringer solution to 1,000,000 cells/ml (1×10^6 cells/mL). The cells are plated onto BD BioCoat Poly-D-Lysine 384 well plates (20.000 cells/well; 20 μl/well). The lid covered plates are then incubated until use at 37° C./10% CO2. For dye loading, 20 μl of Calcium-4 assay kit solution (prepared according to the manufacturer's description in Ringer solution) are added to the cells and the plates are incubated for 80 min 37° C. and then 10 min at room temperature. • Controls, Compound dilution and assay execution: • Each assay plate contained wells with “high” and “low” controls:
Low controls 1% DMSO/ringer solution+basal glutamate activation (defined as 100% CTL).
High controls 10 μM CDPPB+basal glutamate activation (defined as 200% CTL).
Test compounds are dissolved and diluted in DMSO to 100-fold the desired concentrations. In a second step, the compounds are diluted in Ringer solution such that the compounds are 4-fold more concentrated than the desired final assay concentration. The final DMSO concentration was 1%.
20 μl of each compound solution are then transferred to the assay plate and the Ca2+ kinetic is measured to determine any intrinsic compound activity. After 5 min incubation in the FLIPR device, the second stimulation with 20 μl of glutamate in Ringer solution (glutamate concentration adjusted to approximately 5% basal stimulation of the maximal possible glutamate effect) is added and the kinetic Ca2+ response of the wells was measured for the modulation effect.
The peak height of the Ca release related fluorescence signal (9-66) is used for the EC50. The EC50 of the modulation is calculated over a nonlinear regression with GraphPad Prism (Table 1).
Compound O=C(Cn1nc(-c2ccc(F)cc2)nc1-c1ccc(F)cc1)N1CCc2cc(O)ccc2C1 [Example 7.02.53.] has an EC50 of 229 nM.
In the case of Cc1nc2c(o1)CN(C(=O)Cn1nc(-c3ccc(F)cc3)nc1-c1ccc(F)cc1)CC2 [Example 7.02.54.], the EC50 is reported as 206 nM.
In the case of Cc1ncc2c(n1)CCN(C(=O)Cn1nc(-c3ccc(F)cc3)nc1-c1ccc(F)cc1)C2 [Example 7.02.55.], the EC50 is reported as 1200 nM.
Cc1nc2c(s1)CN(C(=O)Cn1nc(-c3ccc(F)cc3)nc1-c1ccc(F)cc1)CC2 [Example 7.02.56.] showed an EC50 of 932 nM.
O=C(Cn1nc(-c2ccc(F)cc2)nc1-c1ccc(F)cc1)N1CCC(c2ncno2)CC1 [Example 7.02.57.] showed an EC50 of 1450 nM.
Compound O=C(Cn1nc(-c2ccc(F)cc2)nc1-c1ccc(F)cc1)N1Cc2ccc(O)cc2C1 [Example 7.02.58.] has an EC50 of 214 nM.
Compound Cc1nnc(C2CCN(C(=O)Cn3nc(-c4ccc(F)cc4)nc3-c3ccc(F)cc3)CC2)o1 [Example 7.02.59.] has an EC50 of 450 nM.
COc1ncc2c(n1)CCN(C(=O)Cn1nc(-c3ccc(F)cc3)nc1-c1ccc(F)cc1)C2 [Example 7.02.60.] showed an EC50 of 294 nM.
With Cc1noc(C2CCN(C(=O)Cn3nc(-c4ccc(F)cc4)nc3-c3ccc(F)cc3)CC2)n1 [Example 7.02.61.] the EC50 was 511 nM.
COc1cc2c(cc1OC)CCN(C(=O)Cn1nc(-c3ccc(F)cc3)nc1-c1ccc(F)cc1)CC2 [Example 7.02.62.] was tested, and the EC50 was 311 nM.
O=C(Cn1nc(-c2ccc(F)cc2)nc1-c1ccc(F)cc1)N1Cc2nc(-c3ccccc3)sc2C1 [Example 7.02.63.] was tested, and the EC50 was 1010 nM.
O=C(Cn1nc(-c2ccc(F)cc2)nc1-c1ccc(F)cc1)N1CCC(c2ccccn2)C1 (stereo not shown) [Example 7.02.64.] was tested, and the EC50 was 976 nM.
Cc1nc2c(o1)CCN(C(=O)Cn1nc(-c3ccc(F)cc3)nc1-c1ccc(F)cc1)C2 [Example 7.02.65.] gave an EC50 of 407 nM.
With O=C(Cn1nc(-c2ccc(F)cc2)nc1-c1ccc(F)cc1)N1CC=C(c2ccccc2)CC1 [Example 7.02.66.] the EC50 was 559 nM.
Compound O=C(Cn1nc(-c2ccc(F)cc2)nc1-c1ccc(F)cc1)N1CCc2cccnc2CC1 [Example 7.02.67.] has an EC50 of 133 nM.
In the case of O=C(Cn1nc(-c2ccc(F)cc2)nc1-c1ccc(F)cc1)N1CCN(c2nnc(C(F)(F)F)s2)CC1 [Example 7.02.68.], the EC50 is reported as 198 nM.
CC(C)c1ncc2c(n1)CCN(C(=O)Cn1nc(-c3ccc(F)cc3)nc1-c1ccc(F)cc1)C2 [Example 7.02.70.] was tested, and the EC50 was 376 nM.
Work on O=C(c1ccccc1)C1CCN(C(=O)Cn2nc(-c3ccc(F)cc3)nc2-c2ccc(F)cc2)CC1 [Example 7.02.71.] yielded an EC50 of 441 nM.
Compound O=C(Cn1nc(-c2ccc(F)cc2)nc1-c1ccc(F)cc1)N1CC(c2ccccn2)C1 [Example 7.02.72.] has an EC50 of 774 nM.
O=C(Cn1nc(-c2ccc(F)cc2)nc1-c1ccc(F)cc1)N1CCN(c2noc3ccccc23)CC1 [Example 7.02.73.] showed an EC50 of 148 nM.
O=C(Cn1nc(-c2ccc(F)cc2)nc1-c1ccc(F)cc1)N1CCN(c2ncnc3sccc23)CC1 [Example 7.02.74.] showed an EC50 of 798 nM.
O=C(Cn1nc(-c2ccc(F)cc2)nc1-c1ccc(F)cc1)N1CCN(c2ncnc3c2SCC3)CC1 [Example 7.02.76.] gave an EC50 of 242 nM.
CC(=O)Nc1nc2c(s1)CCN(C(=O)Cn1nc(-c3ccc(F)c(C)c3)nc1-c1ccccc1)CC2 [Example 7.02.77.] showed an EC50 of 232 nM.
With Cc1cc(-c2nc(-c3ccccc3)n(CC(=O)N3CCc4nc(N)sc4C3)n2)ccc1F [Example 7.02.78.] the EC50 was 274 nM.
Compound COC(=O)c1ccc2c(c1)CCN(C(=O)Cn1nc(-c3ccc(F)c(C)c3)nc1-c1ccccc1)CC2 [Example 7.02.79.] has an EC50 of 54 nM.
Cc1cc(-c2nc(-c3ccccc3)n(CC(=O)N3CCc4ncnc(-c5ccccc5)c4CC3)n2)ccc1F [Example 7.02.80.] was tested, and the EC50 was 323 nM.
Cc1nc2c(s1)CC(C)N(C(=O)Cn1nc(-c3ccc(F)c(C)c3)nc1-c1ccccc1)CC2 (stereo not shown) [Example 7.02.81.] showed an EC50 of 175 nM.
For Cc1cc(-c2nc(-c3ccccc3)n(CC(=O)N3CCc4cc(-c5ccccc5)nnc4CC3)n2)ccc1F [Example 7.02.82.], the EC50 was 149 nM.
COc1ccc2c(n1)CCN(C(=O)Cn1nc(-c3ccc(F)c(C)c3)nc1-c1ccccc1)CC2 [Example 7.02.83.] gave an EC50 of 105 nM.
Cc1nc2c(s1)CN(C(=O)Cn1nc(-c3ccc(F)c(C)c3)nc1-c1ccccc1)CC2 [Example 7.02.84.] gave an EC50 of 115 nM.
For COc1nc2c(s1)CCN(C(=O)Cn1nc(-c3ccc(F)c(C)c3)nc1-c1ccccc1)CC2 [Example 7.02.85.], the EC50 was 33 nM.
Compound Cc1nc2c(o1)CCN(C(=O)Cn1nc(-c3ccc(F)c(C)c3)nc1-c1ccccc1)CC2 [Example 7.02.86.] has an EC50 of 28 nM.
Work on Cc1cc(-c2nc(-c3ccccc3)n(CC(=O)N3CCc4ncsc4CC3)n2)ccc1F [Example 7.02.87.] yielded an EC50 of 58.8 nM.
Work on Cc1cc(-c2nc(-c3ccccc3)n(CC(=O)N3CCc4ccc(N)cc4CC3)n2)ccc1F [Example 7.02.88.] yielded an EC50 of 180 nM.
With Cc1cc(-c2nc(-c3ccccc3)n(CC(=O)N3CCc4cn[nH]c4CC3)n2)ccc1F [Example 7.02.89.] the EC50 was 194 nM.
Work on COc1cc2c(cc1OC)CCN(C(=O)Cn1nc(-c3ccc(F)c(C)c3)nc1-c1ccccc1)CC2 [Example 7.02.90.] yielded an EC50 of 155 nM.
Work on COc1ccc2c(c1)CCN(C(=O)Cn1nc(-c3ccc(F)c(C)c3)nc1-c1ccccc1)CC2 [Example 7.02.91.] yielded an EC50 of 107 nM.
Compound Cc1nc2c(o1)CCN(C(=O)Cn1nc(-c3ccc(F)c(C)c3)nc1-c1ccccc1)C2 [Example 7.02.92.] has an EC50 of 46 nM.
For Nc1nc2c(s1)CCN(C(=O)Cn1nc(-c3ccc(F)cc3)nc1-c1ccc(F)cc1)CC2 [Example 7.03.001., 1-(2-Amino-4,5,7,8-tetrahydro-thiazolo[4,5-d]azepin-6-yl)-2-(3,5-bis-(4-fluoro-phenyl)-(1,2,4)triazol-1-yl)-ethanone], the EC50 was 164 nM.
O=C(Cn1nc(-c2ccc(F)cc2)nc1-c1ccc(F)cc1)N1CCc2nc(-c3ccccc3)ncc2C1 [Example 7.03.002.] was tested, and the EC50 was 708 nM.
With Cc1nc(C2CCN(C(=O)Cn3nc(-c4ccc(F)cc4)nc3-c3ccc(F)cc3)CC2)oc1C [Example 7.03.003.] the EC50 was 851 nM.
O=C(Cn1nc(-c2ccc(F)cc2)nc1-c1ccc(F)cc1)N1CCC(C(O)c2ccccc2)CC1 (stereo not shown) [Example 7.03.004.] showed an EC50 of 1060 nM.
O=C(Cn1nc(-c2ccc(F)cc2)nc1-c1ccc(F)cc1)N1CCC(Oc2ccccc2)CC1 [Example 7.03.005.] was tested, and the EC50 was 958 nM.
For COc1cc2c(cc1OC)CN(C(=O)Cn1nc(-c3ccc(F)cc3)nc1-c1ccc(F)cc1)CC2 [Example 7.03.006.], the EC50 was 1680 nM.
With O=C(Cn1nc(-c2ccc(F)cc2)nc1-c1ccc(F)cc1)N1CCN(Cc2ccccc2)C(=O)C1 [Example 7.03.007.] the EC50 was 1380 nM.
For O=C(Cn1nc(-c2ccc(F)cc2)nc1-c1ccc(F)cc1)N1CCC(c2nnc(-c3ccccc3)o2)CC1 [Example 7.03.008.], the EC50 was 752 nM.
Work on O=C(Cn1nc(-c2ccc(F)cc2)nc1-c1ccc(F)cc1)N1CCC(Oc2ccccn2)CC1 [Example 7.03.009.] yielded an EC50 of 808 nM.
O=C(Cn1nc(-c2ccc(F)cc2)nc1-c1ccc(F)cc1)N1CCN(c2ccccc2)C(=O)C1 [Example 7.03.010.] showed an EC50 of 734 nM.
Compound O=C(Cn1nc(-c2ccc(F)cc2)nc1-c1ccc(F)cc1)N1CCc2ncsc2CC1 [Example 7.03.011.] has an EC50 of 453 nM.
Work on O=C(Cn1nc(-c2ccc(F)cc2)nc1-c1ccc(F)cc1)N1CCC(c2ncccn2)CC1 [Example 7.03.012.] yielded an EC50 of 1470 nM.
For Nc1nc2c(s1)CCN(C(=O)Cn1nc(-c3ccc(F)cc3)nc1-c1ccc(F)cc1)CC2 [Example 7.03.013.], the EC50 was 141 nM.
Compound CC1CN(c2ccccn2)CCN1C(=O)Cn1nc(-c2ccc(F)cc2)nc1-c1ccc(F)cc1 (stereo not shown) [Example 7.03.014.] has an EC50 of 626 nM.
Compound N#Cc1cccc(N2CCN(C(=O)Cn3nc(-c4ccc(F)cc4)nc3-c3ccc(F)cc3)CC2=O)c1 [Example 7.03.015.] has an EC50 of 305 nM.
O=C(Cn1nc(-c2ccc(F)cc2)nc1-c1ccc(F)cc1)N1CCN(c2cc(F)ccn2)C(=O)C1 [Example 7.03.016.] was tested, and the EC50 was 101 nM.
Nc1nc2c(o1)CCN(C(=O)Cn1nc(-c3ccc(F)cc3)nc1-c1ccc(F)cc1)CC2 [Example 7.03.019.] showed an EC50 of 439 nM.
